Results as given in the supplement of paper PMC11061612.

Assays:
[1] = compound: CC1=C(C(=CC=C1)Cl)NC(=O)C2=CN=C(S2)NC3=CC(=NC(=N3)C)N4CCN(CC4)CCO [Dasatinib]; conditions: max 2 µM
Outline: (§1)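 Cancer cell lines in 1536-well plates (7.5 μl DMEM/F12 or RPMI, 10% FBS) were held 24 hours at 37°C and 5% CO2 and then dosed for 72 hours at a final DMSO of typically 0.2%. Viability was taken from CellTiter-Glo 2.0 luminescence, scaled between blank-well and DMSO-well means. Curves were fitted as two-parameter logistic models with a non-linear mixed effects model, from which the single-agent IC50 was taken.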

[2] = compound: Nc1ccn([C@@H]2O[C@H](CO)[C@@H](O)C2(F)F)c(=O)n1 [Gemcitabine]; conditions: max 0.3 µM
Outline: as §1

[3] = compound: COc1cc(Nc2ncc3c(n2)-c2ccc(Cl)cc2C(c2c(F)cccc2OC)=NC3)ccc1C(=O)O [Alisertib]; conditions: max 10 µM
Outline: as §1

[4] = compound: CC1=CN2[C@@H](C1)C=NC3=CC(=C(C=C3C2=O)OC)OCCCCCOC4=C(C=C5C(=C4)N=C[C@@H]6CC(=CN6C5=O)C)OC [SG3199]; conditions: max 0.001 µM
Outline: as §1

[5] = compound: NC1(c2ccc(-c3nc4ccn5c(=O)[nH]nc5c4cc3-c3ccccc3)cc2)CCC1 [MK-2206]; conditions: max 10 µM
Outline: as §1

[6] = compound: CC(=O)O[C@H]1C(=O)[C@@]2(C)[C@H]([C@H](OC(=O)c3ccccc3)[C@]3(O)C[C@H](OC(=O)[C@H](O)[C@@H](NC(=O)c4ccccc4)c4ccccc4)C(C)=C1C3(C)C)[C@]1(OC(C)=O)CO[C@@H]1C[C@@H]2O [Paclitaxel]; conditions: max 3 µM
Outline: as §1

[7] = compound: CC(C)n1c(=O)n(C)c2cnc3cc(F)c(-c4ccc(OCCCN5CCCCC5)nc4)cc3c21 [AZD1390]; conditions: max 0.3 µM
Outline: as §1

[8] = compound: O=C(c1cc(Cc2n[nH]c(=O)c3ccccc23)ccc1F)N1CCN(C(=O)C2CC2)CC1 [Olaparib]; conditions: max 10 µM
Outline: as §1

[9] = compound: COc1cccc2c1C(=O)c1c(O)c3c(c(O)c1C2=O)C[C@@](O)(C(=O)CO)C[C@@H]3O[C@H]1C[C@H](N)[C@H](O)[C@H](C)O1 [Doxorubicin]; conditions: max 1 µM
Outline: as §1

[10] = compound: Cc1c2c(nn1C)CSCc1cc(n(C)n1)CSc1cc(c3ccccc3c1)OCCCc1c(C(=O)O)n(C)c3c-2c(Cl)ccc13 [AZD5991]; conditions: max 1 µM
Outline: as §1

[11] = compound: Cn1cnc2c(F)c(Nc3ccc(Br)cc3Cl)c(C(=O)NOCCO)cc21 [Selumetinib]; conditions: max 10 µM
Outline: as §1

[12] = compound: CC1(C)CCC(CN2CCN(c3ccc(C(=O)NS(=O)(=O)c4ccc(NCC5CCOCC5)c([N+](=O)[O-])c4)c(Oc4cnc5[nH]ccc5c4)c3)CC2)=C(c2ccc(Cl)cc2)C1 [Venetoclax]; conditions: max 1 µM
Outline: as §1

[13] = compound: CCc1c2c(nc3ccc(O)cc13)-c1cc3c(c(=O)n1C2)COC(=O)[C@]3(O)CC [SN-38]; conditions: max 0.3 µM
Outline: as §1

[14] = compound: COc1cc2ncnc(Nc3ccc(F)c(Cl)c3)c2cc1OCCCN1CCOCC1 [Gefitinib]; conditions: max 10 µM
Outline: as §1

[15] = compound: COc1nnc2ccc(N3CCC(c4ccc(OCCN5CCN(C)C(=O)[C@H]5C)cc4)CC3)nn12 [AZD5153]; conditions: max 1 µM
Outline: as §1

[16] = compound: O=C(Nc1ccc2[nH]nc(-c3ccncc3)c2c1)[C@@H]1CCN(CC(=O)N2CCN(c3ccc(-c4ncccn4)cc3)CC2)C1; conditions: max 5 µM
Outline: as §1

[17] = compound: COc1cc([C@@H]2c3cc4c(cc3[C@@H](O[C@@H]3O[C@@H]5CO[C@@H](C)O[C@H]5[C@H](O)[C@H]3O)[C@H]3COC(=O)[C@H]23)OCO4)cc(OC)c1O [Etoposide]; conditions: max 10 µM
Outline: as §1

[18] = compound: COc1cccc(OCCCN)c1-c1cc(Nc2cnc(C#N)cn2)n[nH]1 [Prexasertib]; conditions: max 1 µM
Outline: as §1

[19] = compound: CN(C)CCCOc1ccc(-c2ccc3ncc4c(c3c2)n(C2CCOCC2)c(=O)n4C)cn1 [AZD0156]; conditions: max 3 µM
Outline: as §1

[20] = compound: N#Cc1cnc(Nc2cc(NC[C@H]3CNCCO3)c(C(F)(F)F)cn2)cn1 [SRA737]; conditions: max 10 µM
Outline: as §1

[21] = compound: CS(=O)(=O)CCNCc1ccc(-c2ccc3ncnc(Nc4ccc(OCc5cccc(F)c5)c(Cl)c4)c3c2)o1 [Lapatinib]; conditions: max 10 µM
Outline: as §1

[22] = compound: Cc1nc(-c2cn3c(n2)-c2ccc(-c4cnn(C(C)(C)C(N)=O)c4)cc2OCC3)n(C(C)C)n1 [Taselisib]; conditions: max 10 µM
Outline: as §1

[23] = compound: CC(=O)Nc1cccc(-n2c(=O)n(C3CC3)c(=O)c3c(Nc4ccc(I)cc4F)n(C)c(=O)c(C)c32)c1 [Trametinib]; conditions: max 1 µM
Outline: as §1

[24] = compound: CCN(CCO)CCCOc1ccc2c(Nc3cc(CC(=O)Nc4cccc(F)c4)[nH]n3)ncnc2c1 [AZD2811]; conditions: max 1 µM
Outline: as §1

[25] = compound: C=CCn1c(=O)c2cnc(Nc3ccc(N4CCN(C)CC4)cc3)nc2n1-c1cccc(C(C)(C)O)n1 [AZD1775]; conditions: max 3 µM
Outline: as §1

[26] = compound: CN(CC[C@H](CSC1=CC=CC=C1)NC2=C(C=C(C=C2)S(=O)(=O)NC(=O)C3=CC=C(C=C3)N4CCC(CC4)[C@H](C5=CC=CC=C5C6=CC=C(C=C6)Cl)O)S(=O)(=O)C(F)(F)F)CCO [AZD4320]; conditions: max 1 µM
Outline: as §1

[27] = compound: C1CN(CCC1(C(=O)N[C@@H](CCO)C2=CC=C(C=C2)Cl)N)C3=NC=NC4=C3C=CN4 [AZD5363]; conditions: max 10 µM
Outline: as §1

[28] = compound: C[C@@H]1COCCN1C2=NC(=NC(=C2)C3(CC3)[S@](=N)(=O)C)C4=C5C=CNC5=NC=C4 [AZD6738]; conditions: max 10 µM
Outline: as §1

[29] = compound: C1CC(C1)(C(=O)[O-])C(=O)[O-].N.N.[Pt+2] [Carboplatin]; conditions: max 10 µM
Outline: as §1

[30] = compound: O=c1[nH]cc(F)c(=O)[nH]1 [5-Fluorouracil]; conditions: max 20 µM
Outline: as §1

[31] = compound: C[C@@H](c1ccc2nccn2c1)n1nnc2ncc(-c3cnn(C)c3)nc21 [Savolitinib]; conditions: max 1 µM
Outline: as §1

[32] = compound: C[C@@H](Nc1cc(F)cc(F)c1)c1cc(C(=O)N(C)C)cc2c(=O)cc(N3CCOCC3)oc12 [AZD8186]; conditions: max 10 µM
Outline: as §1

[33] = compound: C[C@@H](Oc1cc(-c2cnn(C3CCNCC3)c2)cnc1N)c1c(Cl)ccc(F)c1Cl [Crizotinib]; conditions: max 10 µM
Outline: as §1

[34] = compound: CC(=O)c1c(C)c2cnc(Nc3ccc(N4CCNCC4)cn3)nc2n(C2CCCC2)c1=O [Palbociclib]; conditions: max 10 µM
Outline: as §1

[35] = compound: Cc1cc2ncnn2cc1Nc1ncc2c(n1)n(C1CCOCC1)c(=O)n2C [AZD7648]; conditions: max 10 µM
Outline: as §1

Cell Line	IC50, cell viability 72 h [1] [µM]	IC50, cell viability 72 h [2] [µM]	IC50, cell viability 72 h [3] [µM]	IC50, cell viability 72 h [4] [µM]	IC50, cell viability 72 h [5] [µM]	IC50, cell viability 72 h [6] [µM]	IC50, cell viability 72 h [7] [µM]	IC50, cell viability 72 h [8] [µM]	IC50, cell viability 72 h [9] [µM]	IC50, cell viability 72 h [10] [µM]	IC50, cell viability 72 h [11] [µM]	IC50, cell viability 72 h [12] [µM]	IC50, cell viability 72 h [13] [µM]	IC50, cell viability 72 h [14] [µM]	IC50, cell viability 72 h [15] [µM]	IC50, cell viability 72 h [16] [µM]	IC50, cell viability 72 h [17] [µM]	IC50, cell viability 72 h [18] [µM]	IC50, cell viability 72 h [19] [µM]	IC50, cell viability 72 h [20] [µM]	IC50, cell viability 72 h [21] [µM]	IC50, cell viability 72 h [22] [µM]	IC50, cell viability 72 h [23] [µM]	IC50, cell viability 72 h [24] [µM]	IC50, cell viability 72 h [25] [µM]	IC50, cell viability 72 h [26] [µM]	IC50, cell viability 72 h [27] [µM]	IC50, cell viability 72 h [28] [µM]	IC50, cell viability 72 h [29] [µM]	IC50, cell viability 72 h [30] [µM]	IC50, cell viability 72 h [31] [µM]	IC50, cell viability 72 h [32] [µM]	IC50, cell viability 72 h [33] [µM]	IC50, cell viability 72 h [34] [µM]	IC50, cell viability 72 h [35] [µM]
NCI-H2795 (Mesothelioma)	0.578	0.0258	1.3	> 0.001	> 10	0.0853	> 0.3	> 10	0.715	0.974	3.14	> 1	0.0169	> 10	0.84	0.658	3.82	0.146	> 3	> 10	> 10	4.73	0.0384	> 1	> 3	> 1	> 10	9.01	> 10	19.6	> 1	> 10	7.78	> 10	> 10
OC-314 (Ovarian Carcinoma)	0.205	0.0344	6.23	> 0.001	> 10	0.0059	> 0.3	> 10	0.0639	> 1	> 10	> 1	0.00872	> 10	0.0709	> 5	0.876	0.0394	> 3	> 10	> 10	1.6	> 1	> 1	0.671	> 1	> 10	2.61	> 10	17.8	> 1	7.39	> 10	> 10	> 10
PCI-30 (Head and Neck Carcinoma)	> 2	> 0.3	> 10	> 0.001	> 10	> 3	> 0.3	> 10	> 1	> 1	> 10	> 1	0.11	> 10	> 1	> 5	> 10	0.074	> 3	> 10	> 10	> 10	> 1	> 1	> 3	> 1	> 10	> 10	> 10	> 20	> 1	> 10	> 10	> 10	> 10
RKO (Colorectal Carcinoma)	> 2	0.00984	7.23	> 0.001	> 10	0.00391	> 0.3	> 10	0.24	> 1	6.52	> 1	0.0165	> 10	0.0672	0.797	6.79	0.0354	> 3	7.18	> 10	2.95	0.0753	> 1	0.787	> 1	5.24	2.04	> 10	8.59	> 1	> 10	9.5	> 10	> 10
